Assay results reported in ChEMBL document CHEMBL6083184, “Small molecule agents against alopecia: Potential targets and related pathways” (Eur J Med Chem, 2024).

Columns and labels:
[1] = Inhibition of MPC (unknown origin); parameters: species or system Homo sapiens
[2] = biological target: Mothers against decapentaplegic homolog 2 (Homo sapiens, UniProt Q15796); assay: Inhibition of SMAD2 (unknown origin)
Chain of Mothers against decapentaplegic homolog 2 (Q15796 whole entry): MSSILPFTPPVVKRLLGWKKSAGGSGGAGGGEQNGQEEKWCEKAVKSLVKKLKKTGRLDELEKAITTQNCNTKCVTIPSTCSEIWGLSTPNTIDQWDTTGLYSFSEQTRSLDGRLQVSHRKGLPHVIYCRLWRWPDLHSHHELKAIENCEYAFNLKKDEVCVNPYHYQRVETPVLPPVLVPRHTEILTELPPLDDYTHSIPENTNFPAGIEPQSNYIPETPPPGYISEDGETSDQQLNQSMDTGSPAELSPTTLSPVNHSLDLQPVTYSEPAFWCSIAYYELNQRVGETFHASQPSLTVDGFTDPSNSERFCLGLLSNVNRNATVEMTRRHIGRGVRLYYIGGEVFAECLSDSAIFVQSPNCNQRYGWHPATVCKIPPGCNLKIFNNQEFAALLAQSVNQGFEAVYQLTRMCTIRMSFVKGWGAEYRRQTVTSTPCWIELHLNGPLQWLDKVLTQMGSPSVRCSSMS

IC50 [1] [nM] | IC50 [2] [nM] | Compound
16.6 |  | N#C/C(=C\c1cn(-c2ccccc2)c2ccccc12)C(=O)O
 | 8.7 | Cc1csc(-c2nc[nH]c2-c2ccc3ncsc3c2)n1
